From the NIST ThermoML archive (doi:10.1016/j.jct.2016.10.010)
Where “and” joins values, the source holds several entries; their conditions need not be identical. Identical values can stand only once.

What was measured:
[1] = for vapor or sublimation pressure: Transpiration method; for Normal melting temperature: DTA
[2] = Molar enthalpy of transition or fusion; conditions: Crystal; DSC

C[C@H]1COc2c(N3CCN(C)CC3)c(F)cc3c(=O)c(C(=O)O)cn1c23 [levofloxacin]
[1], Crystal
Conditions | vapor or sublimation pressure [kPa]
437.15 K | 5.71e-06
439.15 K | 6.66e-06
441.15 K | 8.35e-06
443.15 K | 9.72e-06
445.15 K | 1.135e-05
447.15 K | 1.364e-05
449.15 K | 1.607e-05
451.15 K | 1.952e-05
453.15 K | 2.326e-05
455.15 K | 2.722e-05
457.15 K | 3.146e-05
459.15 K | 3.689e-05

[1]
Conditions | Normal melting temperature
Crystal | 233.0 °C
Metastable crystal | 227.0 °C and 230.5 °C

Conditions | Molar enthalpy of transition or fusion [kcal/mol]
[2] | 5.26

O=C(O)c1cn(C2CC2)c2cc(N3CCNCC3)c(F)cc2c1=O [ciprofloxacin]
[1], Crystal
Conditions | vapor or sublimation pressure [kPa]
436.15 K | 1.95e-06
438.15 K | 2.43e-06
440.15 K | 2.85e-06
442.15 K | 3.54e-06
444.15 K | 4.3e-06
446.15 K | 4.97e-06
448.15 K | 5.94e-06
450.15 K | 7.09e-06
452.15 K | 8.4e-06
454.15 K | 1.045e-05
456.15 K | 1.228e-05
458.15 K | 1.461e-05
460.15 K | 1.764e-05

Conditions | Normal melting temperature [°C]
[1], Crystal | 270

CCn1cc(C(=O)O)c(=O)c2cc(F)c(N3CCNCC3)cc21 [norfloxacin]
[1], Crystal
Conditions | vapor or sublimation pressure [kPa]
423.15 K | 1.3e-06
425.15 K | 1.57e-06
427.15 K | 1.86e-06
429.15 K | 2.21e-06
431.15 K | 2.66e-06
432.15 K | 2.85e-06
434.15 K | 3.35e-06
436.15 K | 3.92e-06
438.15 K | 4.53e-06
440.15 K | 5.26e-06
442.15 K | 6.02e-06
444.15 K | 7.01e-06
446.15 K | 8.32e-06

[1]
Conditions | Normal melting temperature [°C] | Triple point temperature [K]
Crystal | 220.4 | –
Crystal 2, DSC | – | 468.7

Conditions | Molar enthalpy of transition or fusion [kcal/mol]
[2] | 8.63

CCN1CCN(c2cc3c(cc2F)c(=O)c(C(=O)O)cn3C2CC2)CC1 [Enrofloxacin]
[1], Crystal
Conditions | vapor or sublimation pressure [kPa]
431.15 K | 1.79e-06
433.15 K | 2.13e-06
435.15 K | 2.5e-06
437.15 K | 2.92e-06
439.15 K | 3.41e-06
441.15 K | 4.04e-06
443.15 K | 4.71e-06
445.15 K | 5.49e-06
447.15 K | 6.61e-06
449.15 K | 7.56e-06
451.15 K | 8.91e-06
453.15 K | 1.035e-05

Conditions | Normal melting temperature [°C]
[1], Crystal | 221.6

Conditions | Molar enthalpy of transition or fusion [kcal/mol]
[2] | 7.86

O=C(O)c1ccccc1 [benzoic acid]
[1], Crystal
Conditions | vapor or sublimation pressure [kPa]
307.15 K | 0.000285
323.15 K | 0.001674
338.15 K | 0.007513
354.15 K | 0.0316
